Measured values: US7655429B2, “Immunoassays for topiramate” (Seradyn, Inc., priority 2004, dated 2010)

Experiments:
[1] = cited from earlier work
[2] = test system: sheep polyclonal antibodies that bind with topiramate prepared from immunogen (18); assay: QMS homogeneous particle-enhanced immunoturbidimetric assay; assay type: binding; settings: Topiramate antigen (19) coated Latex, Polyclonal antibody R1
Method: An immunoturbidimetric or QMS® assay, which is a homogeneous particle-enhanced immunoturbidimetric experiment, is performed to test the polyclonal antibodies prepared as in Example 21. […] The assay procedure is initiated by diluting the specimen because the specimens with topiramate can be used to generate results that exceed the highest calibrator value. As such, the specimens may be diluted manually or by using an automated onboard dilution protocol. The assay is based on competition for topiramate-specific antibody binding sites between drug in the sample and drug coated onto a microparticle of topiramate-coated microparticle reagent is rapidly agglutinated in the presence of the anti-topiramate antibody reagent and in the absence of any competing drug of the sample. The rate of absorbance change is measured photometrically, and is directly proportional to the rate of agglutination of the particles. […] A concentration-dependent classic agglutination inhibition curve can be obtained, with maximum rate of agglutination at the lowest topiramate concentration (at zero μg/ml) and the lowest agglutination rate at the highest topiramate concentration (32 μg/ml). The QMS® topiramate assay is initiated after the being calibrated using a full calibration (6-point) procedure. The QMS® is performed as directed in operation manuals in accordance with the average skill of one in the art.

[3] = test system: anti-topiramate antibodies prepared with immunogen (17); assay: ELISA binding inhibition study (avidity), free topiramate versus coated antigen; design: species or system Rabbit
Method: ELISA plates for use in an ELISA assay are prepared in order to study the polyclonal antibody prepared as described in Example 21. As such, various topiramate antigens (16), (19), and (20) are coated on different ELISA plates before being subjected to the anti-topiramate antibody and competing free topiramate. More particularly, the topiramate antigens are diluted in coating buffer, and then added to the wells of ELISA plate. After the ELISA plate is incubated for 60 min at 37° C., the solvent in the coating buffer is decanted and a blocking buffer is added to the plate. The plate is incubated again for 60 min at 37° C., and the solvent in the blocking buffer is decanted from the plate. The ELISA plate is then stored with the blocking agent in the wells at 2-8° C. for up to 1 week. The avidity of the anti-topiramate antibodies prepared with immunogen (17) for topiramate analogs are determined by a binding inhibition study. As such, samples are prepared in 1 mL of PBS at pH 7.4 with 0.1% BSA. A composition having 30% Bmax titer or 50% Bmax titer is used to divide the obtained titer value into approximately half the titer value. Using 30% Bmax, an antibody titer of 1:10,000 is diluted to 1:5,000 during the sample preparation stage. About 50 μL of topiramate at different concentrations or calibrator values, (0, 2, 4, 8, 16, 32 μg/ml) are then applied to a plate as prepared in accordance with Example 22. About 50 μL of the diluted antibody is dispensed into the plate, and the compositions in the plate are mixed for 1 min on a horizontal plate shaker. The plate is characterized by a first row not containing topiramate or anti-topiramate antibody, wherein the first row is used as a negative control. A second row not containing topiramate is used as the positive control. The plate is incubated for 60 min, and washed three times with 250 μL of PBS at pH 7.4 with 0.05% tween. About 125 μL of a diluted second antibody conjugate such as antigens (16), (19), or (20), in PBS at pH 7.4 is added to each well of the plate. Titer is determined experimentally by the plate being incubated for 60 min at 37° C. and washed 3 times with 250 μL PBS, pH 7.4 with 0.05% tween. Subsequently, about 125 μL of ABTS substrate is added to each well of the plate and incubated for 20 min.

[4] = dose escalation add-on studies, morning serum
[5] = Antigen 16, Topiramate 2 μg/ml, Rabbit No. 5481
[6] = Antigen 16, Topiramate 2 μg/ml, Rabbit No. 5492
[7] = Antigen 16, Topiramate 4 μg/ml, Rabbit No. 5481
[8] = Antigen 16, Topiramate 4 μg/ml, Rabbit No. 5492
[9] = Antigen 16, Topiramate 8 μg/ml, Rabbit No. 5481
[10] = Antigen 16, Topiramate 8 μg/ml, Rabbit No. 5492
[11] = Antigen 16, Topiramate 16 μg/ml, Rabbit No. 5481
[12] = Antigen 16, Topiramate 16 μg/ml, Rabbit No. 5492
[13] = Antigen 16, Topiramate 32 μg/ml, Rabbit No. 5481
[14] = Antigen 16, Topiramate 32 μg/ml, Rabbit No. 5492
[15] = Antigen 19, Topiramate 2 μg/ml, Rabbit No. 5481
[16] = Antigen 19, Topiramate 2 μg/ml, Rabbit No. 5492
[17] = Antigen 19, Topiramate 4 μg/ml, Rabbit No. 5481
[18] = Antigen 19, Topiramate 4 μg/ml, Rabbit No. 5492
[19] = Antigen 19, Topiramate 8 μg/ml, Rabbit No. 5481
[20] = Antigen 19, Topiramate 8 μg/ml, Rabbit No. 5492
[21] = Antigen 19, Topiramate 16 μg/ml, Rabbit No. 5481
[22] = Antigen 19, Topiramate 16 μg/ml, Rabbit No. 5492
[23] = Antigen 19, Topiramate 32 μg/ml, Rabbit No. 5481
[24] = Antigen 19, Topiramate 32 μg/ml, Rabbit No. 5492
[25] = Antigen 20, Topiramate 2 μg/ml, Rabbit No. 5481
[26] = Antigen 20, Topiramate 2 μg/ml, Rabbit No. 5492
[27] = Antigen 20, Topiramate 4 μg/ml, Rabbit No. 5481
[28] = Antigen 20, Topiramate 4 μg/ml, Rabbit No. 5492
[29] = Antigen 20, Topiramate 8 μg/ml, Rabbit No. 5481
[30] = Antigen 20, Topiramate 8 μg/ml, Rabbit No. 5492
[31] = Antigen 20, Topiramate 16 μg/ml, Rabbit No. 5481
[32] = Antigen 20, Topiramate 16 μg/ml, Rabbit No. 5492
[33] = Antigen 20, Topiramate 32 μg/ml, Rabbit No. 5481
[34] = Antigen 20, Topiramate 32 μg/ml, Rabbit No. 5492

Q: Which “serum concentration with reduction in seizure control” value [1, 4] does the source give for `CC1(C)O[C@@H]2[C@@H](CO[C@@]3(COS(N)(=O)=O)OC(C)(C)O[C@@H]23)O1` [Topiramate, 2,3:4,5-di-O-isopropylidene-beta-D-fructopyranose sulfamate] here?
A: The value was “greater than 75 μmol/L”.

Q: What about the “serum concentration with significant increase in side effects” value [1, 4] of the same molecule?
A: Its value is > 60 µM.

Q: What about the systemic topiramate concentrations ([1]; patients receiving considerably higher doses, up to 2000 mg) of the same molecule?
A: Its systemic topiramate concentrations is ≤ 80 µmol/L.

Q: And the “Rate (Delta Absorbance)” value ([2]; Topiramate 8 μg/ml sample)?
A: Its value is 60.

Q: What about the “Rate (Delta Absorbance)” value ([2]; Topiramate 16 μg/ml sample) of the same molecule?
A: Its value is 16.

Q: And the “Rate (Delta Absorbance)” value ([2]; Topiramate 32 μg/ml sample)?
A: Its value is 4.

Q: What about the Abs [3, 5] of the same molecule?
A: The Abs was 0.29.

Q: And the B/Bo [3, 5]?
A: Its B/Bo is 0.38.

Q: What about the Abs [3, 6] of the same molecule?
A: The Abs was 0.25.

Q: What about the B/Bo [3, 6] of the same molecule?
A: The B/Bo was 0.56.

Q: And the Abs [3, 7]?
A: The Abs was 0.26.

Q: What about the B/Bo [3, 7] of the same molecule?
A: The B/Bo was 0.34.

Q: And the Abs [3, 8]?
A: Its Abs is 0.20.

Q: And the B/Bo [3, 8]?
A: Its B/Bo is 0.44.

Q: And the Abs [3, 9]?
A: The Abs was 0.18.

Q: What about the B/Bo [3, 9] of the same molecule?
A: Its B/Bo is 0.24.

Q: And the Abs [3, 10]?
A: The Abs was 0.15.

Q: And the B/Bo [3, 10]?
A: The B/Bo was 0.33.

Q: And the Abs [3, 11]?
A: The Abs was 0.15.

Q: And the B/Bo [3, 11]?
A: The B/Bo was 0.20.

Q: And the Abs [3, 12]?
A: The Abs was 0.13.

Q: What about the B/Bo [3, 12] of the same molecule?
A: Its B/Bo is 0.29.

Q: What about the Abs [3, 13] of the same molecule?
A: The Abs was 0.11.

Q: And the B/Bo [3, 13]?
A: Its B/Bo is 0.14.

Q: And the Abs [3, 14]?
A: Its Abs is 0.01.

Q: What about the B/Bo [3, 14] of the same molecule?
A: The B/Bo was 0.02.

Q: What about the Abs [3, 15] of the same molecule?
A: Its Abs is 0.33.

Q: What about the B/Bo [3, 15] of the same molecule?
A: The B/Bo was 0.40.

Q: What about the Abs [3, 16] of the same molecule?
A: The Abs was 0.31.

Q: What about the B/Bo [3, 16] of the same molecule?
A: Its B/Bo is 0.38.

Q: And the Abs [3, 17]?
A: The Abs was 0.25.

Q: And the B/Bo [3, 17]?
A: Its B/Bo is 0.30.

Q: What about the Abs [3, 18] of the same molecule?
A: The Abs was 0.23.

Q: And the B/Bo [3, 18]?
A: Its B/Bo is 0.28.

Q: And the Abs [3, 19]?
A: The Abs was 0.20.

Q: What about the B/Bo [3, 19] of the same molecule?
A: Its B/Bo is 0.24.

Q: And the Abs [3, 20]?
A: Its Abs is 0.19.

Q: And the B/Bo [3, 20]?
A: Its B/Bo is 0.23.

Q: What about the Abs [3, 21] of the same molecule?
A: Its Abs is 0.18.

Q: What about the B/Bo [3, 21] of the same molecule?
A: Its B/Bo is 0.22.

Q: And the Abs [3, 22]?
A: The Abs was 0.17.

Q: And the B/Bo [3, 22]?
A: The B/Bo was 0.20.

Q: And the Abs [3, 23]?
A: The Abs was 0.15.

Q: And the B/Bo [3, 23]?
A: The B/Bo was 0.18.

Q: What about the Abs [3, 24] of the same molecule?
A: The Abs was 0.15.

Q: And the B/Bo [3, 24]?
A: The B/Bo was 0.18.

Q: And the Abs [3, 25]?
A: Its Abs is 0.32.

Q: And the B/Bo [3, 25]?
A: Its B/Bo is 0.53.

Q: And the Abs [3, 26]?
A: Its Abs is 0.45.

Q: And the B/Bo [3, 26]?
A: Its B/Bo is 0.64.

Q: And the Abs [3, 27]?
A: The Abs was 0.30.

Q: And the B/Bo [3, 27]?
A: Its B/Bo is 0.50.

Q: What about the Abs [3, 28] of the same molecule?
A: Its Abs is 0.41.

Q: What about the B/Bo [3, 28] of the same molecule?
A: The B/Bo was 0.59.

Q: What about the Abs [3, 29] of the same molecule?
A: Its Abs is 0.25.

Q: What about the B/Bo [3, 29] of the same molecule?
A: Its B/Bo is 0.42.

Q: What about the Abs [3, 30] of the same molecule?
A: Its Abs is 0.38.

Q: And the B/Bo [3, 30]?
A: The B/Bo was 0.54.

Q: And the Abs [3, 31]?
A: Its Abs is 0.22.

Q: What about the B/Bo [3, 31] of the same molecule?
A: The B/Bo was 0.37.

Q: And the Abs [3, 32]?
A: Its Abs is 0.38.

Q: What about the B/Bo [3, 32] of the same molecule?
A: The B/Bo was 0.54.

Q: And the Abs [3, 33]?
A: The Abs was 0.18.

Q: What about the B/Bo [3, 33] of the same molecule?
A: Its B/Bo is 0.30.

Q: And the Abs [3, 34]?
A: Its Abs is 0.28.

Q: And the B/Bo [3, 34]?
A: Its B/Bo is 0.40.
